Results: patent publication US20130164228A1, “COMPOSITIONS COMPRISING GALLATES AND GALLAMIDES” (Colgate-Palmolive Company, priority 2011, published 2013)
One block for each molecule: values may come before it.

Tests used:
[1] = system: LL-37 release from human gingival epithelial cells; assay: Induction of anti-microbial peptides: LL-37 ELISA of supernatants; type: cell-based; details: for LL-37 (ng/ml) at 0.05% after 16 hrs: 0.05% test compound; for LL-37 (ng/ml) at 0.1% after 4 hrs: 0.1% test compound
[2] = system: β-defensin release from human gingival epithelial cells; assay: Induction of anti-microbial peptides: β-defensin ELISA of supernatants; type: cell-based; details: 0.1% test compound
[3] = Stability/discoloration of THDG and CHDG (neat, solution, saliva, dentifrice); type: physicochemical; details: for stability in saliva (discoloration): 24 h at 37° C., subject specific, saliva pH 6.5-8; for discoloration in dentifrice, CDC base: in 2 weeks; for Stability of neat materials: neat powders; for discoloration of solutions in DMSO/water: pH 6.1-6.5, after 4M at RT; for discoloration in dentifrice, silica base: in 1 week
[4] = Vitro-Skin assay of potential uptake in skin; type: in vitro ADME
From the text: Using a commercial Vitro-Skin® assay to measure potential uptake in skin, we see uptake from all the formulations, but have better uptake in the Dical formulation than in the silica/SLS formulation (units in micrograms/cm^2): • 0.2% THDG/CDC: 4.9 • 0.2% THDG/HSLS: 0.6 • 0.2% CHDG/CDC: 4.4 • 0.2% CHDG/[…] • 0.3% Triclosan (positive control): 7.7

[5] = system: Actinomyces viscosus (ATCC # 43146); assay: Antibacterial growth inhibition (GI) assay; type: cell-based; details: 100 ppm, OD610 at 2, 4, 6, 24 h
Method: An overnight culture of Actinomyces viscosus (ATCC # 43146) is diluted to an OD610˜0.2 in sterile trypticase soy broth (TSB) Nine mls of diluted Actinomyces viscosus is added to triplicate 15 mls sterile culture tubes for each sample or control tested. One ml of each analog was added to the corresponding culture tube and briefly vortexed. Cultures are incubated at 37° C. in a shaking water bath. Supernatants are removed at 2, 4, 6, and 24 h and the OD610 read. Results from triplicate samples were averaged and growth is plotted as a function of time.

[6] = system: LL-37 production; details: natural products with only one 1,2,3-trihydroxybenzene ring; cited from earlier work

discoloration in dentifrice, CDC base ([3]; CDC base): slight discoloration
Stability of neat materials [3]: short term shelf stability acceptable
discoloration of solutions in DMSO/water [3]: no discoloration
discoloration in dentifrice, silica base ([3]; silica base): moderate discoloration
uptake in Vitro-Skin from CDC formulation ([4]; 0.2 %): 4.9 micrograms/cm^2
uptake in Vitro-Skin from HSLS formulation ([4]; 0.2 %): 0.6 micrograms/cm^2
Molecule: O=C(O[C@@H]1CCCC[C@H]1OC(=O)c1cc(O)c(O)c(O)c1)c1cc(O)c(O)c(O)c1 (relative stereo) [THDG, trans-1,2 cyclohexanediol digallate]
LL-37 (ng/ml) at 0.05% after 16 hrs [1]: 5900 ng/mL
LL-37 (ng/ml) at 0.1% after 4 hrs [1]: 4100 ng/mL
β-defensin (ng/ml) at 0.1% after 4 hrs [2]: 280 ng/mL
stability in saliva (discoloration) [3]: no discoloration to deep green discoloration

Molecule: O=C(N[C@@H]1CCCC[C@H]1NC(=O)c1cc(O)c(O)c(O)c1)c1cc(O)c(O)c(O)c1 (relative stereo) [THDGA, trans-1,2-cyclohexane digallamide]
LL-37 (ng/ml) at 0.05% after 16 hrs [1]: 130 ng/mL
LL-37 (ng/ml) at 0.1% after 4 hrs [1]: 100 ng/mL
β-defensin (ng/ml) at 0.1% after 4 hrs [2]: 1.5 ng/mL

Molecule: CCCCOC(=O)c1cc(O)c(O)c(O)c1 [BG]
LL-37 (ng/ml) at 0.05% after 16 hrs [1]: 50 ng/mL
LL-37 (ng/ml) at 0.1% after 4 hrs [1]: 100 ng/mL
β-defensin (ng/ml) at 0.1% after 4 hrs [2]: 0 ng/mL

discoloration in dentifrice, CDC base ([3]; CDC base): slight discoloration
Stability of neat materials [3]: short term shelf stability acceptable
discoloration of solutions in DMSO/water [3]: no discoloration
discoloration in dentifrice, silica base ([3]; silica base): moderate discoloration
Molecule: O=C(O[C@H]1CCCC[C@H]1OC(=O)c1cc(O)c(O)c(O)c1)c1cc(O)c(O)c(O)c1 [CHDG, cis-1,2-cyclohexanediol digallate]
LL-37 (ng/ml) at 0.05% after 16 hrs [1]: 3700 ng/mL
LL-37 (ng/ml) at 0.1% after 4 hrs [1]: 5200 ng/mL
β-defensin (ng/ml) at 0.1% after 4 hrs [2]: 150 ng/mL
stability in saliva (discoloration) [3]: no discoloration to deep green discoloration

Molecule: O=C(N[C@H]1CCCC[C@H]1NC(=O)c1cc(O)c(O)c(O)c1)c1cc(O)c(O)c(O)c1 [CHDGA, cis-1,2-cyclohexane digallamide]
LL-37 (ng/ml) at 0.05% after 16 hrs [1]: 120 ng/mL
LL-37 (ng/ml) at 0.1% after 4 hrs [1]: 100 ng/mL
β-defensin (ng/ml) at 0.1% after 4 hrs [2]: 0.7 ng/mL

Molecule: O=C(O[C@H]1CCC[C@H]1OC(=O)c1cc(O)c(O)c(O)c1)c1cc(O)c(O)c(O)c1 [CPDG, cis-1,2-cyclopentanediol digallate]
LL-37 (ng/ml) at 0.05% after 16 hrs [1]: 160 ng/mL
LL-37 (ng/ml) at 0.1% after 4 hrs [1]: 120 ng/mL
β-defensin (ng/ml) at 0.1% after 4 hrs [2]: 0.5 ng/mL

time to discoloration in dentifrice, CDC base ([3]; CDC base): 2 days
time to discoloration of solution in DMSO/water ([3]; same conditions: DMSO/water, RT): < 1 week
time to discoloration in dentifrice, silica base ([3]; silica base): 2 days
Molecule: O=C(O[C@@H]1Cc2c(O)cc(O)cc2O[C@@H]1c1cc(O)c(O)c(O)c1)c1cc(O)c(O)c(O)c1 [EGCG, epigallocatechin gallate, reference compound]
antibacterial activity in bacterial culture [5]: modest antibacterial activity
LL-37 (ng/ml) at 0.05% after 16 hrs ([1]; listed as EGCG (source Kenko)): 15 ng/mL
LL-37 (ng/ml) at 0.05% after 16 hrs ([1]; listed as EGCG (source TeaVigo)): 20 ng/mL
LL-37 (ng/ml) at 0.1% after 4 hrs [1]: 160 ng/mL
β-defensin (ng/ml) at 0.1% after 4 hrs [2]: 4.3 ng/mL

uptake in Vitro-Skin, positive control ([4]; 0.3% Triclosan): 7.7 micrograms/cm^2
Molecule: Oc1cc(Cl)ccc1Oc1ccc(Cl)cc1Cl [Triclosan, triclosan, reference compound]

Molecule: Oc1cc(O)c2c(c1)O[C@H](c1cc(O)c(O)c(O)c1)[C@H](O)C2 [epigallocatechin]
potency in LL-37 production compared with EGCG [6]: significantly less potent

Molecule: catechin gallate
potency in LL-37 production compared with EGCG [6]: significantly less potent
